Results on 34 compounds are retold here after patent US9073940B2, “Tricyclic pyrazol amine derivatives” (MERCK SERONO SA, priority 2009, dated 2015).

Each structure is given as a SMILES string.

The first assay deals with 4 PI3K isoforms (Human recombinant GST-PI3K). The experiment in a line: PI3K scintillation proximity assay, best IC50 obtained with the four isoforms (alpha, beta, delta, gamma). It counts as biochemical. The conditions noted are these: best IC50 obtained with the four isoforms of PI3K; read-out: Best potency measured on the 4 PI3K isoforms. On the technique in general: Scintillation proximity formats need no separation of bound from free tracer.
Take `CC1(C)CN(CCN2CCC[C@H](n3nc(C(=O)N4CCOCC4)c4c3-c3ccccc3S(=O)(=O)C4)C2)CCO1` (single isomer, unassigned) [Example 370, 1-{1-[2-(2,2-dimethylmorpholin-4-yl)ethyl]piperidin-3-yl}-3-(morpholin-4-ylcarbonyl)-1,4-dihydrothiochromeno[4,3-c]pyrazole 5,5-dioxide]: the IC50 turned out to be 73 nM.

For `COCCNCc1ccc(-n2nc(C(=O)N3CCOCC3)c3c2-c2ccccc2S(=O)(=O)C3)cc1` [Example 431, 2-Methoxy-N-{4-[3-(morpholin-4-ylcarbonyl)-5,5-dioxidothiochromeno[4,3-c]pyrazol-1(4H)-yl]benzyl}ethanamine], the IC50 turned out to be 164 nM.

In the case of `O=C(c1nn([C@H]2CCCN(CCN3CCCCC3)C2)c2c1CS(=O)(=O)c1ccccc1-2)N1CCOCC1` (stereo in doubt) [Example 465, 3-(morpholin-4-ylcarbonyl)-1-[1-(2-piperidin-1-ylethyl)piperidin-3-yl]-1,4-dihydrothiochromeno[4,3-c]pyrazole 5,5-dioxide], the IC50 is 15 nM.

`COCCCC1c2c(C(=O)N3CCOCC3)nn(-c3ccccc3)c2-c2ccccc2S1(=O)=O` (stereo not shown) [Example 112, 4-(3-Methoxypropyl)-3-(morpholin-4-ylcarbonyl)-1-phenyl-1,4-dihydrothiochromeno[4,3-c]pyrazole 5,5-dioxide]: the IC50 came to 5070 nM.

`CC1CCC(n2nc(C(=O)N3CCOCC3)c3c2-c2ccccc2S(=O)(=O)C3)CC1` (stereo not shown) [Example 127, 1-(4-Methylcyclohexyl)-3-(morpholin-4-ylcarbonyl)-1,4-dihydrothiochromeno[4,3-c]pyrazole 5,5-dioxide]: the IC50 is 426 nM.

Turning to `CN1CCCC(Cn2nc(C(=O)N3CCOCC3)c3c2-c2ccccc2S(=O)(=O)C3)C1` (stereo not shown) [Example 70, 1-[(1-Methylpiperidin-3-yl)methyl]-3-(morpholin-4-ylcarbonyl)-1,4-dihydrothiochromeno[4,3-c]pyrazole 5,5-dioxide], the IC50 was 6050 nM.

Turning to `O=C(c1nn(C2CCOCC2)c2c1CS(=O)(=O)c1c(F)cccc1-2)N1CCOCC1` [Example 249, 6-Fluoro-3-(morpholin-4-ylcarbonyl)-1-(tetrahydro-2H-pyran-4-yl)-1,4-dihydrothiochromeno[4,3-c]pyrazole 5,5-dioxide], the IC50 is 1030 nM.

For `O=C(c1nn(C2CCN(CCC3CCOCC3)C2)c2c1CS(=O)(=O)c1ccccc1-2)N1CCOCC1` (stereo not shown) [Example 270, 3-(Morpholin-4-ylcarbonyl)-1-{1-[2-(tetrahydro-2H-pyran-4-yl)ethyl]pyrrolidin-3-yl}-1,4-dihydrothiochromeno[4,3-c]pyrazole 5,5-dioxide], the IC50 amounted to 280 nM.

Consider `C[C@@H]1CN(CCN2CCC[C@H](n3nc(C(=O)N4CCOCC4)c4c3-c3ccccc3S(=O)(=O)C4)C2)C[C@H](C)O1` (single isomer, unassigned) [Example 378], for which the IC50 came to 65 nM.

`Cc1cccc2c1S(=O)(=O)Cc1c(C(=O)N3CCOCC3)nn(-c3ccccc3)c1-2` [Example 202, 6-Methyl-3-(morpholin-4-ylcarbonyl)-1-phenyl-1,4-dihydrothiochromeno[4,3-c]pyrazole 5,5-dioxide]: the IC50 worked out at 1740 nM.

As for `O=C(c1nn([C@H]2CCCN(C3CCOCC3)C2)c2c1CS(=O)(=O)c1c(F)cccc1-2)N1CCOCC1` (stereo in doubt) [Example 427, 6-fluoro-3-(morpholin-4-ylcarbonyl)-1-[1-(tetrahydro-2H-pyran-4-yl)piperidin-3-yl]-1,4-dihydrothiochromeno[4,3-c]pyrazole 5,5-dioxide], the IC50 came out at 13 nM.

Consider `O=C(c1nn([C@@H]2CCCN(CCN3CCOCC3)C2)c2c1CS(=O)(=O)c1ccccc1-2)N1CCOCC1` (single isomer, unassigned) [Example 348, 3-(morpholin-4-ylcarbonyl)-1-[1-(2-morpholin-4-ylethyl)piperidin-3-yl]-1,4-dihydrothiochromeno[4,3-c]pyrazole 5,5-dioxide], for which the IC50 came out at 1280 nM.

With `O=C(c1nn(-c2ccccc2)c2c1CS(=O)(=O)c1c(Br)cccc1-2)N1CCOCC1` [Example 18], the IC50 stood at 494 nM.

Take `COCCNc1ccc2c(c1)-c1c(c(C(=O)N3CCOCC3)nn1C1CCCCC1)CS2(=O)=O` [Example 89]: the IC50 came out at 1390 nM.

Take `O=C(c1nn(-c2ccc(CN3CCOCC3)cc2)c2c1CS(=O)(=O)c1ncccc1-2)N1CCOCC1` [Example 211]: the IC50 was determined as 400 nM.

On to `COc1ccc2c(c1)S(=O)(=O)Cc1c(C(=O)N3CCOCC3)nn([C@H]3CCCN(CCN4CC(F)(F)C4)C3)c1-2` (single isomer, unassigned) [Example 382, 1-{1-[2-(3,3-difluoroazetidin-1-yl)ethyl]piperidin-3-yl}-7-methoxy-3-(morpholin-4-ylcarbonyl)-1,4-dihydrothiochromeno[4,3-c]pyrazole 5,5-dioxide], for which the IC50 stood at 15 nM.

As to `O=C(c1nn(C2CCN(C3CCOCC3)C2)c2c1CS(=O)(=O)c1c(F)cccc1-2)N1CCOCC1` (stereo not shown) [Example 298, 6-Fluoro-3-(morpholin-4-ylcarbonyl)-1-[1-(tetrahydro-2H-pyran-4-yl)pyrrolidin-3-yl]-1,4-dihydrothiochromeno[4,3-c]pyrazole 5,5-dioxide], the IC50 is 29 nM.

As to `COCCN(C)Cc1ccc(-n2nc(C(=O)N3CCOCC3)c3c2-c2ccccc2S(=O)(=O)C3)cc1` [Example 426, 2-Methoxy-N-methyl-N-{4-[3-(morpholin-4-ylcarbonyl)-5,5-dioxidothiochromeno[4,3-c]pyrazol-1(4H)-yl]benzyl}ethanamine], the IC50 was found to be 113 nM.

Take `O=C(c1nn(C2CCCCC2)c2c1CS(=O)(=O)c1sccc1-2)N1CCOCC1` [Example 201, 1-Cyclohexyl-3-(morpholin-4-ylcarbonyl)-1,4-dihydrothieno[3′,2′:5,6]thiopyrano[4,3-c]pyrazole 5,5-dioxide]: the IC50 came out at 302 nM.

Turning to `COCCNc1ccc2c(c1)S(=O)(=O)Cc1c(C(=O)N3CCOCC3)nn(-c3ccccc3)c1-2` [Example 327], the IC50 was determined as 6610 nM.

Take `O=C(c1nn([C@H]2CCCN(CCN3CC(F)(F)C3)C2)c2c1CS(=O)(=O)c1ccccc1-2)N1CCOCC1` (single isomer, unassigned) [Example 362, 1-{1-[2-(3,3-difluoroazetidin-1-yl)ethyl]piperidin-3-yl}-3-(morpholin-4-ylcarbonyl)-1,4-dihydrothiochromeno[4,3-c]pyrazole 5,5-dioxide]: the IC50 stood at 17 nM.

For `O=C(c1nn([C@@H]2CCCN(CCN3CCOCC3)C2)c2c1CS(=O)(=O)c1c(Cl)cccc1-2)N1CCOCC1` [Example 387], the IC50 came out at 5230 nM.

With `O=C(c1nn(-c2cccc(CN3CCCC3)c2)c2c1CS(=O)(=O)c1ccccc1-2)N1CCOCC1` [Example 245, 3-(Morpholin-4-ylcarbonyl)-1-[3-(pyrrolidin-1-ylmethyl)phenyl]-1,4-dihydrothiochromeno[4,3-c]pyrazole 5,5-dioxide], the IC50 amounted to 516 nM.

Take `O=C(c1nn(Cc2ccccc2)c2c1CS(=O)(=O)c1ccccc1-2)N1CCOCC1` [Example 40, 1-benzyl-3-(morpholin-4-ylcarbonyl)-1,4-dihydrothiochromeno[4,3-c]pyrazole 5,5-dioxide]: the IC50 was 1190 nM.

Consider `COC1CN(Cc2cccc(-n3nc(C(=O)N4CCOCC4)c4c3-c3ccccc3S(=O)(=O)C4)c2)C1` [Example 262, 1-{3-[(3-Methoxyazetidin-1-yl)methyl]phenyl}-3-(morpholin-4-ylcarbonyl)-1,4-dihydrothiochromeno[4,3-c]pyrazole 5,5-dioxide], for which the IC50 was 277 nM.

In the case of `O=C(c1nn(-c2cccc(OCCn3ccnc3)c2)c2c1CS(=O)(=O)c1ccccc1-2)N1CCOCC1` [Example 360, 1-{3-[2-(1H-Imidazol-1-yl)ethoxy]phenyl}-3-(morpholin-4-ylcarbonyl)-1,4-dihydrothiochromeno[4,3-c]pyrazole 5,5-dioxide], the IC50 came to 179 nM.

Consider `O=C(c1nn(C2CCCN(CC3CCOCC3)C2)c2c1CS(=O)(=O)c1ccccc1-2)N1CCOCC1` (stereo not shown) [Example 305, 3-(morpholin-4-ylcarbonyl)-1-[1-(tetrahydro-2H-pyran-4-ylmethyl)piperidin-3-yl]-1,4-dihydrothiochromeno[4,3-c]pyrazole 5,5-dioxide], for which the IC50 was 11 nM.

As for `O=C(c1nn(CCc2ccccn2)c2c1CS(=O)(=O)c1ccccc1-2)N1CCOCC1` [Example 55, 3-(morpholin-4-ylcarbonyl)-1-(2-pyridin-2-ylethyl)-1,4-dihydrothiochromeno[4,3-c]pyrazole 5,5-dioxide], the IC50 was determined as 1920 nM.

As for `CC(C)(C)OC(=O)N1CCCC(n2nc(C(=O)N3CCOCC3)c3c2-c2ccccc2S(=O)(=O)C3)C1` (stereo not shown) [Example 120], the IC50 came out at 1540 nM.

For the compound `CN(C)CCN1CCCC(n2nc(C(=O)N3CCOCC3)c3c2-c2ccccc2S(=O)(=O)C3)C1` (stereo not shown) [Example 253, N,N-Dimethyl-2-{3-[3-(morpholin-4-ylcarbonyl)-5,5-dioxidothiochromeno[4,3-c]pyrazol-1 (4H)-yl]piperidin-1-yl}ethanamine], the IC50 worked out at 72 nM.

Consider `O=C(c1nn([C@H]2CCCN(C3CCOCC3)C2)c2c1CS(=O)(=O)c1ccccc1-2)N1CCOCC1` (stereo in doubt) [Example 374, 3-(morpholin-4-ylcarbonyl)-1-[1-(tetrahydro-2H-pyran-4-yl)piperidin-3-yl]-1,4-dihydrothiochromeno[4,3-c]pyrazole 5,5-dioxide], for which the IC50 was 80 nM.

The assay is the same for the next values; noted with them: inhibition at 20 μM.
As for `COc1cc(OC)cc(-n2nc(C(=O)N3CCOCC3)c3c2-c2ccccc2S(=O)(=O)C3)c1` [Example 67], the “Best potency measured on the 4 PI3K isoforms, % inh @20 μM” value (“Best potency measured … % inh @20 μM” for short) was 54% inh @20 μM.

On to `CC(C)CC1COCCN1C(=O)c1nn(-c2ccccc2)c2c1CS(=O)(=O)c1ccccc1-2` (stereo not shown) [Example 332], for which the “Best potency measured … % inh @20 μM” value came out at 15% inh @20 μM.

Regarding `O=C(c1nn(-c2ccccc2)c2c1C[S+]([O-])c1ccccc1-2)N1CCOCC1` (stereo not shown) [Example 330, 3-(Morpholin-4-ylcarbonyl)-1-phenyl-1,4-dihydrothiochromeno[4,3-c]pyrazole 5-oxide], the “Best potency measured … % inh @20 μM” value came out at 18% inh @20 μM.
